{"source": "patent US20120028284A1", "about": "“TRAPPING COMPOUNDS AND METHOD FOR IDENTIFYING REACTIVE METABOLITES” (EISAI R&D MANAGEMENT CO., LTD., priority 2009, published 2012)", "key": {"[1]": {"test_system": "human liver microsomal preparations (cytochrome P450 enzyme preparations)", "assay": "Trapping of \"soft\" and \"hard\" reactive metabolites in microsomal incubations with compound of formula (I), neutral loss LC-MS/MS", "format": "in vitro ADME", "settings": "50 μM test compound, 2 mg/ml microsomal proteins, 3 mM NADPH, 37° C.; for adducts of reactive metabolites with ECHK detected: trapping agent ECHK 1 mM; for adducts of reactive metabolites with ECHK detected / adducts of reactive metabolites with EHCK detected: neutral loss scanning of 129 Da; for adducts of reactive metabolites with ECO detected: trapping agent ECO 1 mM, neutral loss scanning of 129 Da or 147 Da; for adducts of reactive metabolites with EHCK detected: trapping agent EHCK 1 mM", "procedure": "All microsomal incubations described herein were performed at 37° C. in a water bath or on a heat block. The test compound was mixed with human liver microsomal preparations (cytochrome P450 enzyme preparations) in 100 mM potassium phosphate buffer (pH7.4) including 0.1 mM EDTA and the compound of formula (I). The resulting mixtures were pre-warmed at 37° C. for 5 min. To the reaction mixtures was then added the co-factor-NADPH (to initiate the reaction) to yield a final volume of 500 μl.\nThe resulting reaction mixtures contained 50 μM test compounds, 2 mg/ml microsomal proteins, 1 mM mixture of compound of formula (I) and 3 mM NADPH.\nAfter 15 or 60 min incubation, the reactions were terminated by the addition of 1000 μl of 50% methanol/50% acetonitrile. The resulting mixtures were centrifuged at 10,000 g for 10 min at 4° C. to pellet the precipitated protein, and the supernatants were dried up. The resulting residue was solubilized with 50% methanol.\n(§1) MS analyses were performed on an LTQ Orbitrap FTMS (Thermo Fisher Scientific, Inc., Bremen, Germany). The ESI ion source was operated in the positive ion mode. The entire eluent was sprayed into the mass spectrometer at +5 kV and desolvation of the solvent droplets was further aided by a heated capillary temperature of 350° C. Mass spectra collected in the neutral loss scanning mode were obtained by scanning over the range m/z 200-1100 at 30000 resolution.\nFor complete profiling of reactive metabolites, samples were first subjected to chromatographic separations with a Prominence LC system with an auto-sampler (Shimadzu Corp., Kyoto, Japan) and eluents were introduced to the LTQ Orbitrap FTMS operated in the neutral loss scanning mode. An L-column ODS (Octadecylsilyl-silica gels; 2.1×150 mm, Chemicals Evaluation and Research Institute, Tokyo, Japan) was used for the chromatographic separation. The chromatographic system used a binary solvent system delivered as a gradient of solvent A (5 mM ammonium acetate) and solvent B (95% acetonitrile included 5 mM ammonium acetate). […] The solvent composition was then held at 100% B for 8 min before re-equilibration at initial conditions. LC-MS/MS analyses were carried out on 20 μl aliquots of cleaned samples. Data acquisition was carried out using the Xcaliber version 2.0 software (Thermo Fisher Scientific, Inc., Bremen, Germany)."}, "[2]": {"assay": "Trapping of acylglucuronides by incubation with compound of formula (I) in buffer, neutral loss LC-MS/MS", "settings": "100 μM diclofenac acylglucuronide, pH7.4 buffer, 60 min, 37° C.", "procedure": "The resulting mixtures were pre-warmed at 37° C. for 5 min.\nas §1\nFor complete profiling of reactive metabolites, samples were first subjected to chromatographic separations with a Prominence LC system with an auto-sampler (Shimadzu Corp., Kyoto, Japan) and eluents were introduced to the LTQ Orbitrap FTMS operated in the neutral loss scanning mode. […] The solvent composition was then held at 100% B for 8 min before re-equilibration at initial conditions. […] Data acquisition was carried out using the Xcaliber version 2.0 software (Thermo Fisher Scientific, Inc., Bremen, Germany)."}}}
{"smiles": "c1coc(-c2cccs2)c1", "note": "[2-[2-thienyl]-furan, 2-[2-Thienyl]-furan]", "values": [{"measurement": "adducts of reactive metabolites with ECHK detected", "setting": "[1]", "value": "three adducts"}, {"measurement": "adducts of reactive metabolites with ECO detected", "setting": "[1]", "value": "three adducts"}, {"measurement": "adducts of reactive metabolites with EHCK detected", "setting": "[1]", "value": "three adducts"}]}
{"smiles": "O=C(Cc1ccccc1Nc1c(Cl)cccc1Cl)O[C@@H]1O[C@H](C(=O)O)[C@@H](O)[C@H](O)[C@H]1O", "note": "[diclofenac acylglucuronide, Diclofenac acylglucuronide]", "values": [{"measurement": "adduct of acylglucuronide with ECHK detected", "setting": "[2]; trapping agent ECHK 1 mM, neutral loss scanning of 129 Da", "value": "adduct of diclofenac acylglucuronide with ECHK which was detected"}, {"measurement": "adduct of acylglucuronide with ECO detected", "setting": "[2]; trapping agent ECO 1 mM, neutral loss scanning of 129 Da and 147 Da", "value": "adduct of diclofenac acylglucuronide with ECO which was detected"}, {"measurement": "adduct of acylglucuronide with EHCK detected", "setting": "[2]; trapping agent EHCK 1 mM, neutral loss scanning of 129 Da", "value": "adduct of diclofenac acylglucuronide with EHCK which was detected"}]}
{"smiles": "O=C(O)Cc1ccccc1Nc1c(Cl)cccc1Cl", "note": "[diclofenac, Diclofenac]", "values": [{"measurement": "adducts of reactive metabolites with ECHK detected", "setting": "[1]", "value": "two adducts"}, {"measurement": "adducts of reactive metabolites with ECO detected", "setting": "[1]", "value": "two adducts"}, {"measurement": "adducts of reactive metabolites with EHCK detected", "setting": "[1]", "value": "two adducts"}]}
